From ChEMBL document CHEMBL3832037, “DailyMed|setid=7FCE939E-C38E-497F-BA3F-E7B6BA44BFD9 | SIMVASTATIN - simvastatin tablet, film coated|Contract Pharmacy Services-PA”
Several values for one entry are separate records, joined by “and”; a condition that tells them apart may be missing. Equal entries are not always repeated.

Key:
Homo sapiens [1] = experiment: Effect of co-administered drugs on the AUC and Cmax for Simvastatin, and its active metabolite Simvastatin acid. The geometric mean AUC and Cmax ratio (Ratio: with/without co-administered drug) for Simvastatin acid following single dose co-administration of Simvastatin with different drugs.; format: ADME, organism-based; details: in vivo, po, dosed compound id 2, dosed compound name SIMVASTATIN, regimen Single dose, tissue Plasma
Homo sapiens [2] = experiment: Effect of the co-administered drugs on the AUC and Cmax of simvastatin and simvastatin acid. The geometric mean AUC and Cmax ratio (Ratio: with/without co-administered drug) for simvastatin and simvastatin acid following multpile dose co-administration of simvastatin with different drugs.; format: ADME, organism-based; details: in vivo, po, dose 20 mg, dosed compound id 2, dosed compound name SIMVASTATIN, regimen Every 24h, tissue Plasma
[3] = dose 20 mg, interact cpd dose 2 g
[4] = dose 20 mg, interact cpd dose 237 mL, inter cpd dosed level low, inter cpd dos duration 3 days
[5] = dose 40 mg, interact cpd dose 600 mg, inter cpd dos duration 3 days
[6] = dose 60 mg, interact cpd dose 200 mL, inter cpd dosed level high, inter cpd dos duration 2 days
[7] = dose 80 mg, interact cpd dose 10 mg, inter cpd dos duration 10 days
[8] = dose 80 mg, interact cpd dose 120 mg, inter cpd dos duration 10 days
[9] = dose 80 mg, interact cpd dose 160 mg, inter cpd dos duration 14 days, study dosing duration 7 days
[10] = dose 80 mg, interact cpd dose 200 mg, inter cpd dos duration 4 days
[11] = dose 80 mg, interact cpd dose 240 mg, inter cpd dos duration 3 days

Row | Ratio AUC (Homo sapiens [1]; [3]) | Ratio Cmax (Homo sapiens [1]; [3]) | Ratio AUC (Homo sapiens [1]; [4]) | Ratio AUC (Homo sapiens [1]; [5]) | Ratio Cmax (Homo sapiens [1]; [5]) | Ratio AUC (Homo sapiens [1]; [6]) | Ratio AUC (Homo sapiens [1]; [7]) | Ratio Cmax (Homo sapiens [1]; [7]) | Ratio AUC (Homo sapiens [1]; [8]) | Ratio Cmax (Homo sapiens [1]; [8]) | Ratio AUC (Homo sapiens [1]; [9]) | Ratio Cmax (Homo sapiens [1]; [9]) | Ratio AUC (Homo sapiens [1]; [10]) | Ratio Cmax (Homo sapiens [1]; [10]) | Ratio Cmax (Homo sapiens [1]; [11]) | Ratio AUC (Homo sapiens [1]; dose 80 mg, interact cpd dose 240 mg, inter cpd dos duration 7 days) | Ratio Cmax (Homo sapiens [2]; interact cpd dose 200 mg, inter cpd dos duration 4 days) | Ratio AUC (Homo sapiens [2]; interact cpd dose 1250 mg, inter cpd dos duration 14 days, study dosing duration 28 days) | Ratio Cmax (Homo sapiens [1]; [6]) | Ratio AUC (Homo sapiens [1]; [11]) | SMILES
1 | 1.4 | 1.08 | 1.9 | 1.35 | 0.91 | 16 | 1.77 | 1.47 | 3.1 | 2.88 | 0.89 | 0.83 | 8.9 | 5.3 and 13.1 | 2.1 | 2.5 | 6.2 | 6 |  |  | CCC(C)(C)C(=O)O[C@H]1C[C@@H](C)C=C2C=C[C@H](C)[C@H](CC[C@@H]3C[C@@H](O)CC(=O)O3)[C@H]21 [SIMVASTATIN]
2 | 1.6 | 1.84 | 1.3 | 2.85 | 2.18 |  | 1.58 | 1.56 | 2.69 | 2.69 | 0.64 | 0.89 | 12 | 15 and 13.1 | 2.4 |  |  |  | 7 | 2.3 | CCC(C)(C)C(=O)O[C@H]1C[C@@H](C)C=C2C=C[C@H](C)[C@H](CC[C@@H](O)C[C@@H](O)CC(=O)O)[C@H]21 [TENIVASTATIN]
